Patent US6706740B2, “Fungicidal heterocyclic aromatic amides and their compositions, methods of use and preparation” (Dow AgroSciences LLC, priority 1999, dated 2004)

Tests used:
Assay type in all cases: cell-based
[1] = test system: Mycosphaerella graminicola (Septoria tritici—SEPTTR); experiment: In vitro fungal growth inhibition, Mycosphaerella graminicola (SEPTTR); conditions: Zymoseptoria tritici; 25 ppm in growth medium; read-out: SEPTTR in vitro Growth Inhibition
[2] = test system: Stagonospora nodorum (Leptosphaeria nodorum—LEPTNO); experiment: In vitro fungal growth inhibition, Stagonospora nodorum (LEPTNO); conditions: Leptosphaeria; 25 ppm in growth medium; read-out: LEPTNO in vitro Growth Inhibition
[3] = test system: Phytophthora infestans (PHYTIN); experiment: microbe, parasite or virus in culture; conditions: Phytophthora infestans, read-out: PHYTIN in vitro Growth Inhibition
[4] = test system: Magnaporthe grisea (Pyricularia oryzae—PYRIOR); experiment: microbe, parasite or virus in culture; conditions: Pyricularia oryzae, read-out: PYRIOR in vitro Growth Inhibition
Ustilago maydis (USTIMA) = experiment: microbe, parasite or virus in culture; conditions: Mycosarcoma maydis, read-out: USTIMA in vitro Growth Inhibition
[5] = test system: Rhizoctonia solani (RHIZSO); experiment: microbe, parasite or virus in culture; conditions: Rhizoctonia solani, read-out: RHIZSO in vitro Growth Inhibition

Structure (SMILES) | inhibition at 25 ppm [1] [%] | inhibition at 25 ppm [2] [%] | inhibition at 25 ppm [3] [%] | inhibition at 25 ppm [4] [%] | inhibition at 25 ppm (Ustilago maydis (USTIMA)) [%] | inhibition at 25 ppm [5] [%]
COc1ccnc(C(=O)NCCCCCCCCCCC(=O)OCCSc2ccccc2)c1O [Compound 362] | < 80 | < 80 | < 80 | > 80 | < 80 | < 80
COc1ccnc(C(=O)NCCCCCCCCCCC(=O)Oc2cccc(NC(C)=O)c2)c1O [Compound 363] | < 80 | < 80 | < 80 | > 80 | < 80 | < 80
COc1ccnc(C(=O)NCCCCCCCCCCCC(=O)OCCSc2ccccc2)c1O [Compound 364] | < 80 | < 80 | < 80 | > 80 | < 80 | < 80
COc1ccnc(C(=O)NCCCCCCCCCCCC(=O)Oc2cccc(NC(C)=O)c2)c1O [Compound 365] | < 80 | < 80 | < 80 | > 80 | < 80 | < 80
COc1ccnc(C(=O)NCCCCC(=O)Oc2cccnc2Br)c1O [Compound 366] | < 80 | < 80 | > 80 | < 80 | < 80 | < 80
COc1ccnc(C(=O)NCCCCC(=O)Oc2cccc(NC(C)=O)c2)c1O [Compound 367] | < 80 | < 80 | < 80 | > 80 | < 80 | < 80
COc1ccnc(C(=O)NCCCCCCCC(=O)Oc2ccc(C)c(Cl)c2)c1O [Compound 368] | < 80 | < 80 | < 80 | < 80 | < 80 | > 80
COc1ccnc(C(=O)NC(CC2CCCCC2)C(=O)OC2CCNC2)c1O (stereo not drawn) [Compound 369] | < 80 | < 80 | < 80 | < 80 | < 80 | > 80
COc1ccnc(C(=O)NC(C)C(=O)OCCCCCc2ccccc2)c1O (stereo not drawn) [Compound 370] | < 80 | > 80 | < 80 | < 80 | < 80 | < 80
COc1ccnc(C(=O)NCC(=O)OCCCCCc2ccccc2)c1O [Compound 371] | < 80 | < 80 | < 80 | < 80 | < 80 | > 80
COc1ccnc(C(=O)NCC(=O)OC2CCCCC2)c1O [Compound 372] | < 80 | < 80 | < 80 | < 80 | < 80 | > 80
COc1ccnc(C(=O)NC(CC(N)=O)C(=O)OC/C=C(/C)CCC=C(C)C)c1O (stereo not drawn) [Compound 373] | < 80 | < 80 | < 80 | < 80 | < 80 | > 80
COc1ccnc(C(=O)NC(Cc2ccc(OCc3ccccc3)cc2)C(=O)O)c1O (stereo not drawn) [Compound 374] | < 80 | > 80 | < 80 | < 80 | < 80 | < 80
COc1ccnc(C(=O)N[C@H]2COC(=O)[C@H](Cc3ccccc3)[C@@H](OC(=O)C(C)C)[C@H](C)OC2=O)c1OC(=O)CC(C)C [Compound 606] | < 80 | > 80 | < 80 | < 80 | < 80 | < 80
COc1ccnc(C(=O)N[C@H]2COC(=O)[C@H](Cc3ccccc3)[C@@H](OC(=O)C(C)C)[C@H](C)OC2=O)c1OC(=O)c1ccccc1C [Compound 628] | < 80 | > 80 | < 80 | < 80 | < 80 | < 80
COc1ccnc(C(=O)N[C@H]2COC(=O)[C@H](Cc3ccccc3)[C@@H](OC(=O)C(C)C)[C@H](C)OC2=O)c1OC(=O)c1cccc(C)c1C [Compound 632] | < 80 | > 80 | < 80 | < 80 | < 80 | < 80
COc1ccnc(C(=O)N[C@H]2COC(=O)[C@H](Cc3ccccc3)[C@@H](OC(=O)C(C)C)[C@H](C)OC2=O)c1OC(=O)c1ccc(OC(Cl)(Cl)Cl)cc1 [Compound 635] | < 80 | > 80 | < 80 | < 80 | < 80 | < 80
COc1ccnc(C(=O)N[C@H]2COC(=O)[C@H](Cc3ccccc3)[C@@H](OC(=O)C(C)C)[C@H](C)OC2=O)c1OC(=O)c1ccccc1F [Compound 636] | < 80 | > 80 | < 80 | < 80 | < 80 | < 80
COc1ccnc(C(=O)N[C@H]2COC(=O)[C@H](Cc3ccccc3)[C@@H](OC(=O)C(C)C)[C@H](C)OC2=O)c1OC(=O)c1ccc(F)cc1 [Compound 637] | < 80 | > 80 | < 80 | < 80 | < 80 | < 80
COc1ccnc(C(=O)N[C@H]2COC(=O)[C@H](Cc3ccccc3)[C@@H](OC(=O)C(C)C)[C@H](C)OC2=O)c1OC(=O)c1ccc(F)cc1F [Compound 638] | < 80 | > 80 | < 80 | < 80 | < 80 | < 80
COc1ccnc(C(=O)N[C@H]2COC(=O)[C@H](Cc3ccccc3)[C@@H](OC(=O)C(C)C)[C@H](C)OC2=O)c1OC(=O)c1cccc(C(F)(F)F)c1 [Compound 640] | < 80 | > 80 | < 80 | < 80 | < 80 | < 80
COc1ccnc(C(=O)N[C@H]2COC(=O)[C@H](Cc3ccccc3)[C@@H](OC(=O)C(C)C)[C@H](C)OC2=O)c1OC(=O)c1c(F)c(F)c(F)c(F)c1F [Compound 642] | < 80 | > 80 | < 80 | < 80 | < 80 | < 80
COc1ccnc(C(=O)N[C@H]2COC(=O)[C@H](Cc3ccccc3)[C@@H](OC(=O)C(C)C)[C@H](C)OC2=O)c1OC(=O)c1ccc(Cl)cc1Cl [Compound 643] | < 80 | > 80 | < 80 | < 80 | < 80 | < 80
